Assay results taken from PubChem BioAssay AID330 (DTP/NCI, 2004).
Values joined by “and” are separate entries in the source; they are usually repeats but may differ in a detail not shown here. Equal entries are not always repeated. Toxic doses and inconclusive results are not listed. Rule for the calls: active = survival T/C of 150% or more; inactive = T/C below 125% in these data.

System: P388 leukemia ip, CD2F1 mice, survival T/C
Assay: NCI In Vivo Anticancer Drug Screen. Data for tumor model P388 Leukemia (intraperitoneal) in CD2F1 (CDF1) mice
Settings: endpoint: median survival time, higher = longer survival
Method in brief: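 Mice carrying the transplanted tumor received test compound or vehicle. Survival was recorded in each group, and the value is the treated-group measurement divided by that of the vehicle-treated control group.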

[1] = dose: 50.0 mg/kg/injection, schedule: Q01DX009 (ip), vehicle: saline with Tween-80
[2] = dose: 100.0 mg/kg/injection, schedule: Q01DX009 (ip), vehicle: saline with Tween-80
[3] = dose: 200.0 mg/kg/injection, schedule: Q01DX009 (ip), vehicle: saline with Tween-80
[4] = dose: 200.0 mg/kg/injection, schedule: Q01DX009 (ip), vehicle: saline
[5] = dose: 50.0 mg/kg/injection, schedule: Q01DX009 (ip), vehicle: Klucel (hydroxypropylcellulose) (HPC)
[6] = dose: 100.0 mg/kg/injection, schedule: Q01DX009 (ip), vehicle: Klucel (hydroxypropylcellulose) (HPC)
[7] = dose: 200.0 mg/kg/injection, schedule: Q01DX009 (ip), vehicle: Klucel (hydroxypropylcellulose) (HPC)
[8] = dose: 50.0 mg/kg/injection, schedule: Q01DX005 (ip), vehicle: saline with Tween-80
[9] = dose: 100.0 mg/kg/injection, schedule: Q01DX005 (ip), vehicle: saline with Tween-80
[10] = dose: 60.0 mg/kg/injection, schedule: Q01DX005 (ip), vehicle: Klucel (hydroxypropylcellulose) (HPC)
[11] = dose: 120.0 mg/kg/injection, schedule: Q01DX005 (ip), vehicle: Klucel (hydroxypropylcellulose) (HPC)
[12] = dose: 240.0 mg/kg/injection, schedule: Q01DX005 (ip), vehicle: Klucel (hydroxypropylcellulose) (HPC)

Measured: T/C

CCOc1c(N=Nc2ccc(O)cc2)c(C)nn1C(N)=S
inactive: dose: 15.0 mg/kg/injection, schedule: Q01DX005 (ip), vehicle: Klucel + Tween-80 99 % of control | dose: 30.0 mg/kg/injection, schedule: Q01DX005 (ip), vehicle: Klucel + Tween-80 101 % of control

C/C(=C/C(=O)Nc1ccccc1)Nc1onc(C)c1C
inactive: dose: 60.0 mg/kg/injection, schedule: Q01DX005 (ip), vehicle: saline with Tween-80 102 % of control | dose: 120.0 mg/kg/injection, schedule: Q01DX005 (ip), vehicle: saline with Tween-80 96 % of control | dose: 240.0 mg/kg/injection, schedule: Q01DX005 (ip), vehicle: saline with Tween-80 90 % of control

FC(F)Oc1ccccc1
inactive: dose: 50.0 mg/kg/injection, schedule: Q01DX009 (ip), vehicle: acetone 105 % of control | [1] 100 % of control and 101 % of control | dose: 100.0 mg/kg/injection, schedule: Q01DX009 (ip), vehicle: acetone 113 % of control | [2] 100 % of control and 110 % of control | dose: 200.0 mg/kg/injection, schedule: Q01DX009 (ip), vehicle: acetone 110 % of control | [3] 114 % of control

Cc1cc(C)n2nc3c4ccsc4ncc3c2n1
inactive: dose: 25.0 mg/kg/injection, schedule: Q04DX002 (ip), vehicle: saline with Tween-80 105 % of control and 95 % of control | dose: 50.0 mg/kg/injection, schedule: Q04DX002 (ip), vehicle: saline with Tween-80 99 % of control and 105 % of control | dose: 100.0 mg/kg/injection, schedule: Q04DX002 (ip), vehicle: saline with Tween-80 116 % of control and 118 % of control and 119 % of control

CCCC(NC(=O)OCc1ccccc1)C(=O)NC(Cc1c[nH]c2ccccc12)C(=O)O (stereo unspecified)
inactive: dose: 50.0 mg/kg/injection, schedule: Q01DX005 (ip), vehicle: Klucel (hydroxypropylcellulose) (HPC) 109 % of control | dose: 100.0 mg/kg/injection, schedule: Q01DX005 (ip), vehicle: Klucel (hydroxypropylcellulose) (HPC) 108 % of control | dose: 200.0 mg/kg/injection, schedule: Q01DX005 (ip), vehicle: Klucel (hydroxypropylcellulose) (HPC) 94 % of control

Cc1cc2ccccc2cc1N
inactive: dose: 50.0 mg/kg/injection, schedule: Q01DX009 (ip), vehicle: saline 106 % of control | dose: 100.0 mg/kg/injection, schedule: Q01DX009 (ip), vehicle: saline 100 % of control | [4] 97 % of control

CCCCCCOC(=O)C(N)Cc1ccc(N(CCCl)CCCl)cc1 (stereo unspecified)
inactive: dose: 5.1 mg/kg/injection, schedule: Q01DX009 (ip), vehicle: saline 118 % of control | dose: 10.2 mg/kg/injection, schedule: Q01DX009 (ip), vehicle: saline 86 % of control
active: dose: 1.28 mg/kg/injection, schedule: Q01DX009 (ip), vehicle: saline 245 % of control | dose: 2.55 mg/kg/injection, schedule: Q01DX009 (ip), vehicle: saline 322 % of control | dose: 3.2 mg/kg/injection, schedule: Q03HX008 (ip), vehicle: saline 165 % of control | dose: 6.4 mg/kg/injection, schedule: Q03HX008 (ip), vehicle: saline 180 % of control | dose: 12.8 mg/kg/injection, schedule: Q03HX008 (ip), vehicle: saline 295 % of control | dose: 25.5 mg/kg/injection, schedule: Q03HX008 (ip), vehicle: saline 600 % of control | dose: 51.0 mg/kg/injection, schedule: Q03HX008 (ip), vehicle: saline 600 % of control

CCOC(=O)Nc1nc2ccccc2n1CN1CCN(Cn2c(NC(=O)OCC)nc3ccccc32)CC1
inactive: dose: 25.0 mg/kg/injection, schedule: Q01DX005 (ip), vehicle: saline 108 % of control | dose: 50.0 mg/kg/injection, schedule: Q01DX005 (ip), vehicle: saline 111 % of control | dose: 100.0 mg/kg/injection, schedule: Q01DX005 (ip), vehicle: saline 121 % of control | dose: 200.0 mg/kg/injection, schedule: Q01DX005 (ip), vehicle: saline 122 % of control

CN(C)CCCNc1ccc(NCCCN(C)C)c2c1C(=O)c1ccccc1C2=O
inactive: dose: 3.75 mg/kg/injection, schedule: Q01DX009 (ip), vehicle: saline 100 % of control | dose: 7.5 mg/kg/injection, schedule: Q01DX009 (ip), vehicle: saline 102 % of control | dose: 12.5 mg/kg/injection, schedule: Q01DX009 (ip), vehicle: water 104 % of control | dose: 15.0 mg/kg/injection, schedule: Q01DX009 (ip), vehicle: saline 102 % of control | dose: 25.0 mg/kg/injection, schedule: Q01DX009 (ip), vehicle: water 103 % of control | dose: 30.0 mg/kg/injection, schedule: Q01DX009 (ip), vehicle: saline 100 % of control | dose: 60.0 mg/kg/injection, schedule: Q01DX009 (ip), vehicle: saline 100 % of control

NC(CC(=O)O)C(=O)O (stereo unspecified)
inactive: [5] 103 % of control and 105 % of control | [6] 105 % of control and 91 % of control | [7] 91 % of control | [4] 100 % of control | dose: 400.0 mg/kg/injection, schedule: Q01DX009 (ip), vehicle: saline 100 % of control | dose: 800.0 mg/kg/injection, schedule: Q01DX009 (ip), vehicle: saline 90 % of control

Oc1c(Br)cc(Br)cc1C1CCCCC1
inactive: dose: 25.0 mg/kg/injection, schedule: Q01DX009 (ip), vehicle: saline with Tween-80 110 % of control | [1] 119 % of control | [2] 107 % of control | [3] 113 % of control

C=CC[N+](CCO)(CCO)CCCCCCCCCCCCCCCCCC
inactive: dose: 6.25 mg/kg/injection, schedule: Q01DX009 (ip), vehicle: saline with Tween-80 114 % of control | dose: 12.5 mg/kg/injection, schedule: Q01DX009 (ip), vehicle: saline with Tween-80 108 % of control

O=c1c2ccccc2n(-c2ccccc2)c2ccc(Cl)cc12
inactive: [8] 86 % of control | [9] 90 % of control

O=C1CCCC2C3CCC[N+]4([O-])CCCC(O)(CN12)C34 (stereo unspecified)
inactive: dose: 6.2 mg/kg/injection, schedule: Q01DX007 (ip), vehicle: carboxymethylcellulose (CMC) 100 % of control | dose: 12.5 mg/kg/injection, schedule: Q01DX007 (ip), vehicle: carboxymethylcellulose (CMC) 91 % of control | dose: 25.0 mg/kg/injection, schedule: Q01DX007 (ip), vehicle: carboxymethylcellulose (CMC) 91 % of control

O=[N+]([O-])Nc1ccccn1
inactive: dose: 100.0 mg/kg/injection, schedule: Q04DX002 (ip), vehicle: saline 114 % of control | dose: 200.0 mg/kg/injection, schedule: Q04DX002 (ip), vehicle: saline 110 % of control | dose: 400.0 mg/kg/injection, schedule: Q04DX002 (ip), vehicle: saline 97 % of control

CC(=O)N1CN(C)N(C)C1
inactive: [10] 98 % of control | [11] 91 % of control | [12] 100 % of control

O=C1NCC(c2ccccc2)N1 (stereo unspecified)
inactive: [1] 119 % of control | [2] 100 % of control | [3] 106 % of control

CC1=CC2OC3CC4OC(=O)/C=C/C=C/C(C(C)O)OCCC5(C)OC5C(=O)OCC2(CC1)C4(C)C31CO1 (stereo unspecified)
inactive: dose: 1.25 mg/kg/injection, schedule: Q01DX005 (ip), vehicle: saline + alcohol 101 % of control | dose: 2.5 mg/kg/injection, schedule: Q01DX005 (ip), vehicle: saline + alcohol 118 % of control

Nc1nc(N)c2ncn(Cc3c(Cl)cccc3Cl)c2n1
inactive: dose: 50.0 mg/kg/injection, schedule: Q01DX005 (ip), vehicle: distilled water + alcohol 95 % of control | dose: 100.0 mg/kg/injection, schedule: Q01DX005 (ip), vehicle: distilled water + alcohol 97 % of control | dose: 200.0 mg/kg/injection, schedule: Q01DX005 (ip), vehicle: distilled water + alcohol 93 % of control

CN(C)Cc1c(N=Nc2cccc3ccccc23)[nH]c2ccccc12
inactive: [5] 106 % of control | [6] 101 % of control | [7] 105 % of control

CCOC(=O)NC(Cc1cc(OC)c(OC)cc1Br)c1ccc(OC)c(OC)c1OC (stereo unspecified)
inactive: dose: 100.0 mg/kg/injection, schedule: Q01DX001 (ip), vehicle: saline with Tween-80 91 % of control | dose: 200.0 mg/kg/injection, schedule: Q01DX001 (ip), vehicle: saline with Tween-80 94 % of control | dose: 400.0 mg/kg/injection, schedule: Q01DX001 (ip), vehicle: saline with Tween-80 91 % of control

CCCCCCCCCCCCNc1ccc(Cl)cc1
inactive: [5] 117 % of control and 123 % of control | [6] 103 % of control and 113 % of control | [7] 117 % of control

CN(C)c1ccc(C2OC(=N)C(=S)N2C)cc1 (stereo unspecified)
inactive: [10] 112 % of control | [11] 109 % of control | [12] 109 % of control

O=C1C(Sc2ccccc2)C(c2ccccc2)C1Sc1ccccc1 (stereo unspecified)
inactive: [8] 96 % of control | [9] 105 % of control | dose: 200.0 mg/kg/injection, schedule: Q01DX005 (ip), vehicle: saline with Tween-80 99 % of control
